# Source: patent publication US7790711B2, “Inhibitors of 11β-Hydroxysteroid Dehydrogenase” (Hoffmann-La Roche Inc., priority 2007, dated 2010)
# Molecular target: T1, human 11betaHSD1 (Homo sapiens, UniProt P28845)
# T1 construct: stably transfected with full-length human 11betaHSD1 cDNA; expressed in transfected cells
# Assay: in vitro inhibition of 11β-HSD1 in H4IIE cells stably transfected with human 11betaHSD1 (cortisone to cortisol, ELISA)
# Type: cell-based
# Settings: H4IIE cells stably transfected with full-length human 11betaHSD1 cDNA; 200 nM cortisone, 2 hours at 37° C.; cortisol by competitive ELISA
# Experimental: H4IIE cells stably transfected with full-length human 11betaHSD1 cDNA were propagated and expanded in DMEM high glucose media (Invitrogen Cat# 11995-065), supplemented with 10% FCS (Invitrogen Cat# 10082-147), 100 units/mL and 100 μg/mL pen/strep (Invitrogen Cat#15140-122), and geneticin (800 μg/mL). One day prior to assay, cells were released from flasks using trypsin/EDTA, centrifuged, and washed with plating media (DMEM high glucose, without phenol red; Invitrogen Cat# 21063-029, supplemented with 2% charcoal stripped FCS; Gemini Cat# 100-119). From a 500,000 cells/mL suspension in plating media, 200 μL of cells were seeded into each well of a 96-well coated plate (BioCoat Cat#356461) and cultured overnight at 37° C. The following day, serially diluted 11betaHSD1 inhibitor compounds dissolved in DMSO were added to DMEM with BSA (2 mg/mL final). The final DMSO concentration was 1%. Media was aspirated from plates, and compounds in media were added to each well. The plates were incubated at 37° C. for 1 hour to allow for cellular uptake of compounds. 10 μL of substrate (cortisone) was then added to each well (200 nM final concentration) and incubated for 2 hours at 37° C. Plates were then transferred to ice and 80 μL of media transferred to a 96-well plate and stored at −30° C.
# Quantitation of cortisol in cell media was performed by competitive ELISA using ELISA-Light (Tropix Cat# T10206/EL100S4), anti-cortisol EIA antibody (Assay Designs, Inc. Cat#80-1148), and cortisol-enzyme conjugate (Assay Designs, Inc. Cat# 80-1147). 384-well plates (Falcon Cat#353988) were precoated with anti-mouse IgG (Sigma Cat# M-1397) suspended in 0.9% NaCl (5 mg/mL), 50 μL per well, overnight at 4° C. Plates were washed with PBS, 0.1% Tween-20, then washed with PBS alone. Plates were blocked with Blocking Buffer (Tropix Cat# AI075) for 2 hours at room temperature. The plates were then washed as previously described. Assay samples were thawed, diluted 1:8 in DMEM, 2 mg/mL BSA, 1% DMSO, and 24 μL was transferred to wells of a pre-coated 384-well plate, as well as varying amounts of cortisol standard. To each well, 12 μL of cortisol-conjugate and 12 μL of anti-cortisol EIA antibody were added and incubated 2 hrs at room temperature on a orbital plate shaker. The wells were then emptied by inversion, then washed three times with 100 μL of PBS, 0.05% Tween-20, and then 2 times with 100 μL of Assay Buffer (Tropix). 60 μL of CDP-STAR (Tropix) was added to each well and incubated 10 minutes at room temperature. Chemiluminescence was measured using a Victor V Reader (Perkin Elmer). Cortisol in each sample was interpolated from a standard curve generated with known amounts of cortisol. IC50 values were calculated using the curve fitting software XLFit4 (IDBS).
# T1 sequence (P28845 whole entry): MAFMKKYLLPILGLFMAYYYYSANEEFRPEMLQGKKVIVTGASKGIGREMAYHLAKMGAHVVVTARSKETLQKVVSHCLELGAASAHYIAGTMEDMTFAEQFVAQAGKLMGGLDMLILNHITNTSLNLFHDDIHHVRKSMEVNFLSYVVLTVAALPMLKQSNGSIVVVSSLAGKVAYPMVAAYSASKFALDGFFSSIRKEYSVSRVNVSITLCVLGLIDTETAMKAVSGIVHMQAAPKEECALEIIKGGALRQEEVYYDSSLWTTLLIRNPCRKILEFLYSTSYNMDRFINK
row,SMILES,IC50 [nM]
1,"O=C(NC1C2CC3CC(C2)CC1C3)c1cnn(-c2ccccc2)c1N1CCCC1 (stereo not drawn) [Example 13, 1-Phenyl-5-pyrrolidin-1-y1-1H-pyrazole-4-carboxylic acid adamantan-2-ylamide]",0.55
2,"CC(O)CNc1c(C(=O)NC2C3CC4CC(C3)CC2C4)cnn1-c1ccccc1 (stereo not drawn) [Example 21, 5-(2-Hydroxy-propylamino)-1-phenyl-1H-pyrazole-4-carboxylic acid adamantan-2-ylamide]",41
3,"O=C(NC1C2CC3CC(C2)CC1C3)c1cnn(-c2ccccc2)c1NCC1CCCO1 (stereo not drawn) [Example 25, 1-Phenyl-5-[(tetrahydro-furan-2-ylmethyl)-amino]-1H-pyrazole-4-carboxylic acid adamantan-2-ylamide]",2
4,"O=C(NC1C2CC3CC(C2)CC1C3)c1cnn(-c2ccccc2)c1NCc1ccccc1 (stereo not drawn) [Example 2, 5-Benzylamino-1-phenyl-1H-pyrazole-4-carboxylic acid adamantan-2-ylamide]",14
5,"COCCCNc1c(C(=O)NC2C3CC4CC(C3)CC2C4)cnn1-c1ccccc1 (stereo not drawn) [Example 27, 5-(3-Methoxy-propylamino)-1-phenyl-1H-pyrazole-4-carboxylic acid adamantan-2-ylamide]",1.4
6,"O=C(NC1C2CC3CC(C2)CC1C3)c1cnn(-c2ccccc2)c1N1CCCCCC1 (stereo not drawn) [Example 14, 5-Azepan-1-y1-1-phenyl-1H-pyrazole-4-carboxylic acid adamantan-2-ylamide]",1
7,"CC(C)Nc1c(C(=O)NC2C3CC4CC(C3)CC2C4)cnn1-c1ccccc1 (stereo not drawn) [Example 1, 5-Isopropylamino-1-phenyl-1H-pyrazole-4-carboxylic acid adamantan-2-ylamide]",1.3
8,"O=C(NC1C2CC3CC(C2)CC1C3)c1cnn(-c2ccccc2)c1N1CCCC(CO)C1 (stereo not drawn) [Example 16, 5-(3-Hydroxymethyl-piperidin-1-y1)-1-phenyl-1H-pyrazole-4-carboxylic acid adamantan-2-ylamide]",6.4
9,"CC1CN(c2c(C(=O)NC3C4CC5CC(C4)CC3C5)cnn2-c2ccccc2)CC(C)O1 (stereo not drawn) [Example 12, 5-(2,6-Dimethyl-morpholin-4-y1)-1-phenyl-1H-pyrazole-4-carboxylic acid adamantan-2-ylamide]",3.7
10,"CC1CCC(C)N1c1c(C(=O)NC2C3CC4CC(C3)CC2C4)cnn1-c1ccccc1 (stereo not drawn) [Example 7, 5-(2,5-Dimethyl-pyrrolidin-1-y1)-1-phenyl-1H-pyrazole-4-carboxylic acid adamantan-2-ylamide]",4
11,"O=C(NC1C2CC3CC(C2)CC1C3)c1cnn(-c2ccccc2)c1N1CCOCC1 (stereo not drawn) [Example 15, 5-Morpholin-4-y1-1-phenyl-1H-pyrazole-4-carboxylic acid adamantan-2-ylamide]",3
12,"CN(CCO)c1c(C(=O)NC2C3CC4CC(C3)CC2C4)cnn1-c1ccccc1 (stereo not drawn) [Example 26, 5-[(2-Hydroxy-ethyl)-methyl-amino]-1-phenyl-1H-pyrazole-4-carboxylic acid adamantan-2-ylamide]",14
13,"O=C(NC1C2CC3CC(C2)CC1C3)c1cnn(-c2ccccc2)c1N1CCC(O)C1 (stereo not drawn) [Example 20, 5-(3-Hydroxy-pyrrolidin-1-y1)-1-phenyl-1H-pyrazole-4-carboxylic acid adamantan-2-ylamide]",13
14,"CN(Cc1ccccc1)c1c(C(=O)NC2C3CC4CC(C3)CC2C4)cnn1-c1ccccc1 (stereo not drawn) [Example 10, 5-(Benzyl-methyl-amino)-1-phenyl-1H-pyrazole-4-carboxylic acid adamantan-2-ylamide]",9.1
15,"O=C(NC1C2CC3CC(C2)CC1C3)c1cnn(-c2ccccc2)c1NCCCO (stereo not drawn) [Example 23, 5-(3-Hydroxy-propylamino)-1-phenyl-1H-pyrazole-4-carboxylic acid adamantan-2-ylamide]",55
16,"O=C(NC1C2CC3CC(C2)CC1C3)c1cnn(-c2ccccc2)c1N1CCC[C@H]1CO (stereo partly drawn) [Example 17, 5-((S)-2-Hydroxymethyl-pyrrolidin-1-y1)-1-phenyl-1H-pyrazole-4-carboxylic acid adamantan-2-ylamide]",42
17,"O=C(NC1C2CC3CC(C2)CC1C3)c1cnn(-c2ccccc2)c1N1CCC(O)CC1 (stereo not drawn) [Example 18, 5-(4-Hydroxy-piperidin-1-y1)-1-phenyl-1H-pyrazole-4-carboxylic acid adamantan-2-ylamide]",3
18,"CC1CCCN(c2c(C(=O)NC3C4CC5CC(C4)CC3C5)cnn2-c2ccccc2)C1 (stereo not drawn) [Example 9, 5-(3-Methyl-piperidin-1-y1)-1-phenyl-1H-pyrazole-4-carboxylic acid adamantan-2-ylamide]",3
19,"CC1CCCN1c1c(C(=O)NC2C3CC4CC(C3)CC2C4)cnn1-c1ccccc1 (stereo not drawn) [Example 8, 5-(2-Methyl-pyrrolidin-1-y1)-1-phenyl-1H-pyrazole-4-carboxylic acid adamantan-2-ylamide]",1.3
20,"O=C(NC1C2CC3CC(C2)CC1C3)c1cnn(-c2ccccc2)c1NC1CCCCC1 (stereo not drawn) [Example 5, 5-Cyclohexylamino-1-phenyl-1H-pyrazole-4-carboxylic acid adamantan-2-ylamide]",4.7
21,"CN(CCc1ccccc1)c1c(C(=O)NC2C3CC4CC(C3)CC2C4)cnn1-c1ccccc1 (stereo not drawn) [Example 11, 5-(Methyl-phenethyl-amino)-1-phenyl-1H-pyrazole-4-carboxylic acid adamantan-2-ylamide]",3.7
22,"O=C(NC1C2CC3CC(C2)CC1C3)c1cnn(-c2ccccc2)c1N1CCCC(O)C1 (stereo not drawn) [Example 19, 5-(3-Hydroxy-piperidin-1-y1)-1-phenyl-1H-pyrazole-4-carboxylic acid adamantan-2-ylamide]",9.2
23,"O=C(NC1C2CC3CC(C2)CC1C3)c1cnn(-c2ccccc2)c1NCCO (stereo not drawn) [Example 22, 5-(2-Hydroxy-ethylamino)-1-phenyl-1H-pyrazole-4-carboxylic acid adamantan-2-ylamide]",21
24,"O=C(NC1C2CC3CC(C2)CC1C3)c1cnn(-c2ccccc2)c1NCC1CC1 (stereo not drawn) [Example 4, 5-(Cyclopropylmethyl-amino)-1-phenyl-1H-pyrazole-4-carboxylic acid adamantan-2-ylamide]",1.9
25,"O=C(NC1C2CC3CC(C2)CC1C3)c1cnn(-c2ccccc2)c1NC1CCC1 (stereo not drawn) [Example 6, 5-Cyclobutylamino-1-phenyl-1H-pyrazole-4-carboxylic acid adamantan-2-ylamide]",7.6
26,"O=C(NC1C2CC3CC(C2)CC1C3)c1cnn(-c2ccccc2)c1NCCCCO (stereo not drawn) [Example 24, 5-(4-Hydroxy-butylamino)-1-phenyl-1H-pyrazole-4-carboxylic acid adamantan-2-ylamide]",7.5
27,"O=C(NC1C2CC3CC(C2)CC1C3)c1cnn(-c2ccccc2)c1NCc1cccnc1 (stereo not drawn) [Example 3, 1-Phenyl-5-[(pyridin-3-ylmethyl)-amino]-1H-pyrazole-4-carboxylic acid adamantan-2-ylamide]",350
